The supplement of paper PMC13380429

Assays:
Conditions in all cases: 72 h
[1] = tested on: Calu-3; assay: cell viability relative to DMSO; higher = less toxic
[2] = tested on: Caco-2; assay: as above
[3] = tested on: HepG2; assay: as above
[4] = tested on: Vero E6; assay: as above
[5] = tested on: U2OS; assay: as above
[6] = tested on: Calu-3; assay: drug sensitivity score (DSS) for viability; higher = more toxic; extreme values may be limits of the assay
[7] = tested on: Caco-2; assay: as above
[8] = tested on: HepG2; assay: as above
[9] = tested on: Vero E6; assay: as above
[10] = tested on: U2OS; assay: as above
[11] = tested on: HepG2; assay: relative viability EC50 (midpoint between 100% and the lowest measured viability); higher = less toxic
[12] = tested on: Vero E6; assay: as above
[13] = tested on: U2OS; assay: as above
[14] = tested on: Calu-3; assay: as above

## COc1cc2c(cc1-c1c(C)noc1C)ncc1[nH]c(=O)n([C@H](C)c3ccccn3)c12 [I-BET151]
[1]; 1 nM
  cell viability: 97.4%
[1]; 10 nM
  cell viability: 99.5%
[1]; 100 nM
  cell viability: 114%
[1]; 1000 nM
  cell viability: 75%
[1]; 10000 nM
  cell viability: 65.3%
[2]; 1 nM
  cell viability: 104%
[2]; 10 nM
  cell viability: 87.1%
[2]; 100 nM
  cell viability: 89.8%
[2]; 1000 nM
  cell viability: 81%
[2]; 10000 nM
  cell viability: 56%
[3]; 1 nM
  cell viability: 104%
[3]; 10 nM
  cell viability: 99.7%
[3]; 100 nM
  cell viability: 91.9%
[3]; 1000 nM
  cell viability: 60.3%
[3]; 10000 nM
  cell viability: 33.6%
[4]; 1 nM
  cell viability: 104%
[4]; 10 nM
  cell viability: 105%
[4]; 100 nM
  cell viability: 94.6%
[4]; 1000 nM
  cell viability: 40.5%
[4]; 10000 nM
  cell viability: 13%
[5]; 1 nM
  cell viability: 97.4%
[5]; 10 nM
  cell viability: 95.6%
[5]; 100 nM
  cell viability: 94.4%
[5]; 1000 nM
  cell viability: 71.3%
[5]; 10000 nM
  cell viability: 44.3%
[6]
  drug sensitivity score: 4.5
[7]
  drug sensitivity score: 4.9
[8]
  drug sensitivity score: 8.6
[9]
  drug sensitivity score: 12.2
[10]
  drug sensitivity score: 6.3
[11]
  relative viability EC50: 671 nM
[12]
  relative viability EC50: 607 nM
[13]
  relative viability EC50: 890 nM

## NC(=O)[C@H]1CCS[C@@H]2C[C@]3(CCCN3C(=O)Cc3ccc(NC(=O)COc4ccc(Cl)cc4Cl)cc3)C(=O)N12 [ST-2825]
[1]; 1 nM
  cell viability: 106%
[1]; 10 nM
  cell viability: 96.9%
[1]; 100 nM
  cell viability: 96.1%
[1]; 1000 nM
  cell viability: 99.8%
[1]; 10000 nM
  cell viability: 91.7%
[2]; 1 nM
  cell viability: 84.7%
[2]; 10 nM
  cell viability: 90.3%
[2]; 100 nM
  cell viability: 91.9%
[2]; 1000 nM
  cell viability: 92.9%
[2]; 10000 nM
  cell viability: 56%
[3]; 1 nM
  cell viability: 96.5%
[3]; 10 nM
  cell viability: 101%
[3]; 100 nM
  cell viability: 103%
[3]; 1000 nM
  cell viability: 91.7%
[3]; 10000 nM
  cell viability: 40.5%
[4]; 1 nM
  cell viability: 101%
[4]; 10 nM
  cell viability: 92.2%
[4]; 100 nM
  cell viability: 94.8%
[4]; 1000 nM
  cell viability: 88.1%
[4]; 10000 nM
  cell viability: 86.6%
[5]; 1 nM
  cell viability: 96.4%
[5]; 10 nM
  cell viability: 104%
[5]; 100 nM
  cell viability: 97.6%
[5]; 1000 nM
  cell viability: 103%
[5]; 10000 nM
  cell viability: 55.6%
[6]
  drug sensitivity score: 0
[7]
  drug sensitivity score: 3.5
[8]
  drug sensitivity score: 4.6
[9]
  drug sensitivity score: 0.5
[10]
  drug sensitivity score: 2
[14]
  relative viability EC50: > 10000 nM
[11]
  relative viability EC50: 2050 nM
[12]
  relative viability EC50: > 10000 nM

## CC[C@H](CO)Nc1nc(NCc2ccccc2)c2ncn(C(C)C)c2n1 [roscovitine]
[6]
  drug sensitivity score: 0
[8]
  drug sensitivity score: 0
[9]
  drug sensitivity score: 0
[10]
  drug sensitivity score: 0

## OC(CNCC(O)C1CCc2cc(F)ccc2O1)C1CCc2cc(F)ccc2O1 (stereo unspecified) [nebivolol]
[1]; 1 nM
  cell viability: 94.9%
[1]; 10 nM
  cell viability: 93.2%
[1]; 100 nM
  cell viability: 103%
[1]; 1000 nM
  cell viability: 105%
[1]; 10000 nM
  cell viability: 92.7%
[2]; 1 nM
  cell viability: 114%
[2]; 10 nM
  cell viability: 102%
[2]; 100 nM
  cell viability: 95.1%
[2]; 1000 nM
  cell viability: 89.7%
[2]; 10000 nM
  cell viability: 72.8%
[3]; 1 nM
  cell viability: 107%
[3]; 10 nM
  cell viability: 112%
[3]; 100 nM
  cell viability: 110%
[3]; 1000 nM
  cell viability: 98.4%
[3]; 10000 nM
  cell viability: 88.9%
[4]; 1 nM
  cell viability: 100%
[4]; 10 nM
  cell viability: 102%
[4]; 100 nM
  cell viability: 91.7%
[4]; 1000 nM
  cell viability: 94.2%
[4]; 10000 nM
  cell viability: 95.1%
[5]; 1 nM
  cell viability: 97.2%
[5]; 10 nM
  cell viability: 94.3%
[5]; 100 nM
  cell viability: 93.9%
[5]; 1000 nM
  cell viability: 99.8%
[5]; 10000 nM
  cell viability: 99.6%
[6]
  drug sensitivity score: 0
[7]
  drug sensitivity score: 1.9
[8]
  drug sensitivity score: 0
[9]
  drug sensitivity score: 0
[10]
  drug sensitivity score: 0
[14]
  relative viability EC50: > 10000 nM
[11]
  relative viability EC50: > 10000 nM
[12]
  relative viability EC50: > 10000 nM
[13]
  relative viability EC50: > 10000 nM

## O=C(CCCc1ccc(-c2ccccc2F)cc1)Nc1ccc(O)cc1 [CMPD-1]
[1]; 1 nM
  cell viability: 94.2%
[1]; 10 nM
  cell viability: 105%
[1]; 100 nM
  cell viability: 99%
[1]; 1000 nM
  cell viability: 88.8%
[1]; 10000 nM
  cell viability: 86.3%
[2]; 1 nM
  cell viability: 95.6%
[2]; 10 nM
  cell viability: 92.4%
[2]; 100 nM
  cell viability: 97.5%
[2]; 1000 nM
  cell viability: 112%
[2]; 10000 nM
  cell viability: 71.9%
[3]; 1 nM
  cell viability: 99%
[3]; 10 nM
  cell viability: 97.8%
[3]; 100 nM
  cell viability: 107%
[3]; 1000 nM
  cell viability: 99.2%
[3]; 10000 nM
  cell viability: 42.6%
[4]; 1 nM
  cell viability: 97.2%
[4]; 10 nM
  cell viability: 95.3%
[4]; 100 nM
  cell viability: 99.6%
[4]; 1000 nM
  cell viability: 97.6%
[4]; 10000 nM
  cell viability: 95.5%
[5]; 1 nM
  cell viability: 94.9%
[5]; 10 nM
  cell viability: 99.4%
[5]; 100 nM
  cell viability: 94.2%
[5]; 1000 nM
  cell viability: 74.8%
[5]; 10000 nM
  cell viability: 36.6%
[6]
  drug sensitivity score: 0.8
[7]
  drug sensitivity score: 0.8
[8]
  drug sensitivity score: 3.2
[9]
  drug sensitivity score: 0
[10]
  drug sensitivity score: 6.3
[14]
  relative viability EC50: > 10000 nM
[11]
  relative viability EC50: 3080 nM
[12]
  relative viability EC50: > 10000 nM
[13]
  relative viability EC50: 1270 nM

## CO[C@@H]1[C@H](N(C)C(=O)c2ccccc2)C[C@H]2O[C@]1(C)n1c3ccccc3c3c4c(c5c6ccccc6n2c5c31)C(=O)NC4 [midostaurin]
[1]; 1 nM
  cell viability: 89.5%
[1]; 10 nM
  cell viability: 88.5%
[1]; 100 nM
  cell viability: 102%
[1]; 1000 nM
  cell viability: 67.3%
[1]; 10000 nM
  cell viability: 43.3%
[2]; 1 nM
  cell viability: 108%
[2]; 10 nM
  cell viability: 111%
[2]; 100 nM
  cell viability: 97.4%
[2]; 1000 nM
  cell viability: 74.9%
[2]; 10000 nM
  cell viability: 63.3%
[3]; 1 nM
  cell viability: 97%
[3]; 10 nM
  cell viability: 94%
[3]; 100 nM
  cell viability: 93.9%
[3]; 1000 nM
  cell viability: 53.9%
[3]; 10000 nM
  cell viability: 44.3%
[4]; 1 nM
  cell viability: 110%
[4]; 10 nM
  cell viability: 101%
[4]; 100 nM
  cell viability: 94.3%
[4]; 1000 nM
  cell viability: 63.9%
[4]; 10000 nM
  cell viability: 36%
[5]; 1 nM
  cell viability: 102%
[5]; 10 nM
  cell viability: 99.2%
[5]; 100 nM
  cell viability: 103%
[5]; 1000 nM
  cell viability: 59.6%
[5]; 10000 nM
  cell viability: 29%
[6]
  drug sensitivity score: 7.1
[7]
  drug sensitivity score: 4.7
[8]
  drug sensitivity score: 9.3
[9]
  drug sensitivity score: 7.8
[10]
  drug sensitivity score: 8.8
[14]
  relative viability EC50: 885 nM
[11]
  relative viability EC50: 369 nM
[12]
  relative viability EC50: 793 nM
[13]
  relative viability EC50: 897 nM

## CCN1CCCC(OC(=O)C(c2ccccc2)c2ccccc2)C1 (stereo unspecified) [piperidolate]
[1]; 1 nM
  cell viability: 99.1%
[1]; 10 nM
  cell viability: 95.2%
[1]; 100 nM
  cell viability: 102%
[1]; 1000 nM
  cell viability: 105%
[1]; 10000 nM
  cell viability: 89.3%
[2]; 1 nM
  cell viability: 89%
[2]; 10 nM
  cell viability: 90.3%
[2]; 100 nM
  cell viability: 70.2%
[2]; 1000 nM
  cell viability: 79.2%
[2]; 10000 nM
  cell viability: 77.9%
[3]; 1 nM
  cell viability: 105%
[3]; 10 nM
  cell viability: 89.1%
[3]; 100 nM
  cell viability: 115%
[3]; 1000 nM
  cell viability: 97.8%
[3]; 10000 nM
  cell viability: 110%
[4]; 1 nM
  cell viability: 98.8%
[4]; 10 nM
  cell viability: 98.7%
[4]; 100 nM
  cell viability: 98%
[4]; 1000 nM
  cell viability: 98%
[4]; 10000 nM
  cell viability: 98.2%
[5]; 1 nM
  cell viability: 98.4%
[5]; 10 nM
  cell viability: 100%
[5]; 100 nM
  cell viability: 100%
[5]; 1000 nM
  cell viability: 100%
[5]; 10000 nM
  cell viability: 92.4%
[6]
  drug sensitivity score: 0
[7]
  drug sensitivity score: 7
[8]
  drug sensitivity score: 0
[9]
  drug sensitivity score: 0
[10]
  drug sensitivity score: 0
[14]
  relative viability EC50: > 10000 nM
[11]
  relative viability EC50: > 10000 nM
[12]
  relative viability EC50: > 10000 nM
[13]
  relative viability EC50: > 10000 nM
